Legend:
[1] = test system: MCF10A cell line; experiment: Cell proliferation assay (Cell-Titer Glo, 72 hr); format: cell-based, human; conditions: low CK1δ; versus CK1δ overexpressing cells
Procedure: (§1) Cell proliferation was measured 72 hr after SR-3029 or vehicle treatment using Cell-Titer Glo (Promega) according to the manufacturers' instructions. EC50 values were determined using non-linear regression and a four-parameter algorithm (GraphPad Prism5). For clonogenic assays, cells were plated in 6-well dishes in triplicate at a density of 500-1000 cells per well. After overnight incubation, SR-3029 or vehicle (DMSO) was added to media for 72 hr and cells were allowed to grow out for 7-10 days, during which media was changed every 2-3 days in the absence of compound. Colonies were fixed in 4% paraformaldehyde/PBS and stained with 0.5% methylene blue in 50% ethanol for 1 hr at room temperature and de-stained with water. Colonies with greater than 50 cells were counted using a low magnification light microscope.

[2] = test system: MCF7 breast cancer cells; experiment: Cell proliferation assay (Cell-Titer Glo, 72 hr); format: cell-based, human; conditions: low CK1δ; versus CK1δ overexpressing cells
Procedure: as §1

[3] = test system: T47D breast cancer cells; experiment: Cell proliferation assay (Cell-Titer Glo, 72 hr); format: cell-based, human; conditions: low CK1δ; versus CK1δ overexpressing cells
Procedure: as §1

[4] = test system: MDA-MB-231 cells; experiment: Clonogenic growth assay; format: cell-based, human
Procedure: as §1

[5] = test system: MDA-MB-231 tumor xenografts; experiment: Established orthotopic tumor xenograft; format: in vivo, nude mice; conditions: 20 mg/kg daily i.p.
Source text: (§2) All animal studies are approved by the Scripps Florida IACUC. Stable pools of MDA-MB-231-Luc, MDA-MB-231, MDA-MB-468, SKBR3 or BT474 cells were established by injection of 2×10^6 cancer cells into the mammary fat pads of 6-week old female athymic nude mice (Charles River Laboratories). Establishment of BCM-4013 patient derived xenografts were as described (19). Briefly, fresh xenograft tumor fragments (˜1 mm^3) were transplanted into the cleared mammary fat pad of recipient SCID/Bg mice (Charles River Laboratories). Mice were treated with SR-3029 or vehicle (10:10:80, DMSO:Tween-80:Water) at 20 mg/kg daily by i.p. injection. Tumor volumes were measured as the indicated intervals using calipers or by luminescence imaging using the IVIS 100 imager (exposure time, 1-60 sec; binning 8; field of view 15-cm; f/stop 1; open filter) following subcutaneous injection of luciferin (15 mg/ml, Goldbio Technology). Average radiance (p/s/cm^2/sr) was determined from tumor region-of-interest (ROI) using Living-Image (Xenogen) analysis software.
For apoptotic detection in cryosections tumors and small intestines were fixed in 10% buffered formalin for 2 hr, incubated in 20% sucrose overnight and embedded in OCT. Frozen sections ([…]) were mounted and stained using the ApopTag Red In Situ Kit according to the manufacturer instructions (CHEMICON). For H&E staining, tissues were fixed in 10% buffered formalin for 48 hr, transferred to 70% ethanol/PBS and embedded in paraffin. Staining was performed on […] sections following deparaffinization (AML Laboratories).

[6] = test system: BT474 (HER2+) tumor xenografts; experiment: Established orthotopic tumor xenograft; format: in vivo, nude mice; conditions: 20 mg/kg daily i.p.; tumors 100-mm^3 before treatment
Source text: as §2

[7] = test system: MDA-MB-468 (TNBC) tumor xenografts; experiment: Established orthotopic tumor xenograft; format: in vivo, nude mice; conditions: 20 mg/kg daily i.p.; tumors 100-mm^3 before treatment
Source text: as §2

[8] = test system: SKBR3 (HER2+) tumor xenografts; experiment: Established orthotopic tumor xenograft; format: in vivo, nude mice; conditions: 20 mg/kg daily i.p.; tumors 100-mm^3 before treatment
Source text: as §2

[9] = test system: β-catenin/TCF transcriptional activity; experiment: TCF-dependent luciferase reporter assay in MDA-MB-231 cells; format: cell-based, human; conditions: increasing doses, 6 hr
Procedure: MDA-MB-231 or HEK293 cells stably expressing the TCF luciferase reporter 7TFP (39) were transfected with β-catenin-S33Y or empty vector (pcDNA). After 18 hr cells were seeded onto a 96-well plate at a density of 6000 cells/well. After 24 hr cells were treated with SR-3029 or vehicle and incubated for 6 hr prior to addition of 1 μg/ml recombinant human Wnt3a (R&D Systems) or PBS. After 3 hr, reporter assays were performed using BriteLite Plus (Perkin Elmer), which was added in equal volume directly to the media and luminescence read using a Spectramax plate reader (Molecular Devices).

[10] = test system: activated β-catenin signaling; experiment: Wnt/β-catenin markers in MDA-MB-231 tumors of treated mice; format: in vivo; conditions: 20 mg/kg once daily i.p.
Source text: All animal studies are approved by the Scripps Florida IACUC. Stable pools of MDA-MB-231-Luc, MDA-MB-231, MDA-MB-468, SKBR3 or BT474 cells were established by injection of 2×10^6 cancer cells into the mammary fat pads of 6-week old female athymic nude mice (Charles River Laboratories). Establishment of BCM-4013 patient derived xenografts were as described (19). Briefly, fresh xenograft tumor fragments (˜1 mm^3) were transplanted into the cleared mammary fat pad of recipient SCID/Bg mice (Charles River Laboratories). Mice were treated with SR-3029 or vehicle (10:10:80, DMSO:Tween-80:Water) at 20 mg/kg daily by i.p. injection. Tumor volumes were measured as the indicated intervals using calipers or by luminescence imaging using the IVIS 100 imager (exposure time, 1-60 sec; binning 8; field of view 15-cm; f/stop 1; open filter) following subcutaneous injection of luciferin (15 mg/ml, Goldbio Technology). Average radiance (p/s/cm^2/sr) was determined from tumor region-of-interest (ROI) using Living-Image (Xenogen) analysis software. SDS-PAGE gel electrophoresis was performed using NuPAGE 4-12% Bis-Tris gels (Invitrogen) and transferred to PVDF membranes by semi-dry transfer using trans-blot transfer medium (Biorad). Membranes were blocked in Odyssey blocking buffer (LI-COR Biosciences) and incubated overnight at 4° C. with primary antibodies. After repeated washes with TBST (20 mM Tris, pH 7.6, 140 mM NaCl and 0.1% Tween-20) blots were incubated with the appropriate IRDye-conjugated secondary antibody (LI-COR Biosciences) and imaged using the LI-COR Odyssey. Bands were quantified using the Odyssey software (LI-COR Biosciences). The following antibodies were used in this study: CK1δ and Histone H4 (Abcam), CK1ε, c-Myc (9E10), Cyclin-D1 and β-actin (Santa Cruz), β-catenin (Cell Signaling), GAPDH (Millipore) and CD44 (R&D Systems). Total RNA was obtained using the RNeasy Plus Mini Kit (Qiagen) and 1-2 μg of RNA was reverse transcribed with Superscript III First Strand Synthesis System (Life Technologies). Quantitative PCR was performed using the Power SYBR Green PCR Master Mix (Life Technologies) and the ABI7900HT Fast Real-Time PCR System. Intron-spanning gene-specific primer pairs were designed using the Primer3 algorithm and relative expression values for each gene of interest obtained by normalizing to GAPDH mRNA expression using the ^ΔΔCt method.

[11] = test system: CK1δ and CK1ε; conditions: cited from earlier work

Fc1cccc(-n2cnc3c(NCc4nc5ccc(F)c(F)c5[nH]4)nc(N4CCOCC4)nc32)c1 [SR-3029]
sensitivity in cell proliferation assay [1]: 2-3 orders of magnitude less sensitive
sensitivity in cell proliferation assay [2]: 2-3 orders of magnitude less sensitive and relative insensitivity and refractory
sensitivity in cell proliferation assay [3]: 2-3 orders of magnitude less sensitive
clonogenic growth and survival [4]: completely blocked
clonogenic growth inhibition with forced overexpression of CK1δ ([4]; CK1δ overexpressing vs GFP-expressing controls): sufficient to rescue the growth inhibitory effects
lifespan (Kaplan-Meier survival) [5]: significantly prolonged lifespan
tumor apoptosis (TUNEL) [5]: fulminant apoptosis
tumor growth ([5]; tumors 100-mm^3 before treatment): marked tumor growth inhibition
tumor growth [6]: marked tumor growth inhibition
tumor growth [7]: marked tumor growth inhibition
tumor growth [8]: marked tumor growth inhibition
endogenous β-catenin/TCF transcriptional activity [9]: markedly reduced
CCND1, WNT3, WNT9A and RARA mRNA transcripts in tumors ([10]; 7 days): decreases
SFRP1 transcripts in tumors ([10]; 7 days): marked increase
expression of nuclear β-catenin in tumors ([10]; 7 days): markedly reduced
CCND1 protein in tumors ([10]; day 7): down-regulation
type of inhibition, potency and selectivity [11]: ATP competitive inhibitor with exceptional potency and selectivity

Reference: patent US10603322B2, “Therapeutic targeting of casein kinase 1δ in breast cancer” (The Scripps Research Institute, priority 2015, dated 2020)
